Measured values reported in PubChem BioAssay AID179 (DTP/NCI, 2004).
The source made the active and inactive calls.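 How the source made its calls: active means compounds giving half or more protection of infected cells from virus-caused growth loss, again on retest; inactive means the rest.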 Where a SMILES comes first, the peptide text is derived from it.

Test system: CEM cells HIV-1 protection, formazan growth assay
Test: NCI AIDS Antiviral Assay
Details: for IC50: measured here: growth of uninfected CEM cells
Method in brief: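 Human CEM cells, uninfected and HIV-1-infected, exposed to five drug concentrations; growth measured by soluble formazan assay and scored as percent protection from infection, with protecting compounds retested.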

Compound	EC50 [µM]	IC50 [µM]	outcome
CCOC(=O)c1[nH]n(-c2ccccc2)c(=O)c1/C=N/C(N)=S	> 200	> 200	–
N[C@@H](CSSC[C@H](N)C(=O)OCc1ccccc1)C(=O)OCc1ccccc1	> 200	83.2	–
CCCCOc1cccc(/C=N/N=C(/N)NO)c1	–	–	inactive
S=P(N1CCOCC1)(N1CC1)N1CC1	> 200	5.25	–
c1ccc(N2N=NC3CCCC32N2CCCCC2)cc1 (stereo not given)	> 200	110	–
Cc1cc(C)nc(NS(=O)(=O)c2ccc(Nc3c4ccc(Cl)cc4nc4c(C(=O)Nc5ccc(S(=O)(=O)N=C(N)N)cc5)cccc34)cc2)n1	> 49	> 49	–
N#Cc1nc(Cc2cccs2)oc1N	> 200	> 200	–
CSC(SC)=C1C(=O)NN=C1C	> 200	> 200	–
N#Cc1c2n(c3c(=O)n(-c4ccccc4)c(=S)[nH]c13)CCCCC2	> 151	> 151	–
CCOC(=O)/C(=C\c1ccc(F)cc1)P(=O)(OCC)OCC	> 759	15.1	–
CC(=O)OC1CC2C(C)(C)C(=O)C=C[C@]2(C)C2CCC3(C)C(c4ccoc4)C(=O)C4OC43[C@]12C (stereo not given in full)	–	–	inactive
COc1cc(NC(=O)CC(C)=O)cc2c(C)cc(=O)n(C)c12	> 200	117	–
COc1cc(/C=C/c2nc3ccccc3nc2/C=C/c2cc(OC)c(OC)c(OC)c2)cc(OC)c1OC	> 7.41	> 7.41	–
CN(C)CCCn1c2c(c3ccccc31)CCCCCC2	> 200	31.6	–
Cc1cc(=O)c2c([nH]1)NS(=O)(=O)NC2=O	> 1480	> 1480	–
COc1ccc(C[C@H]2COC(=O)[C@@H]2Cc2cc(OC)c(O)c(OC)c2)cc1OC	> 200	39.8	–
Nc1ccn(CC(=O)NCCO)c(=O)n1	> 200	> 200	–
NC(=O)N(O)c1cccc(Br)c1	> 200	145	–
O=C(O)c1ccc(Nc2nc3ccccc3nc2-c2cccs2)cc1	> 200	60.3	–
CC1(C)CC[C@H](C2=CC(=O)c3c(O)ccc(O)c3C2=O)O1	> 91.2	0.0955	–
Cc1nc2ccccc2c(=O)n1NC(=S)Nc1ccc(Cl)cc1[N+](=O)[O-]	> 93.3	> 93.3	–
C(C[P+](c1ccccc1)(c1ccccc1)c1ccccc1)=C(c1ccccc1)c1ccccc1	> 200	1.05	–

Compound	EC50 [µM]	IC50 [µM]	outcome
CC1=NN(C(=O)CC(=O)Nc2ccc(Cl)cc2)C(=O)C1N=Nc1ccc(S(=O)(=O)c2ccc(N=NC3C(=O)N(C(=O)CC(=O)Nc4ccc(Cl)cc4)N=C3C)cc2)cc1 (stereo not given)	> 50.1	> 50.1	–
COc1ccc(NC(=O)CC/C(CC(=O)c2ccccc2Cl)=N\Nc2nnc(C)n2N)cc1	> 537	191	–
COc1cccc(OC)c1NC(=O)C(=O)Nn1c(NNC(=O)c2ccncc2)nc2ccccc2c1=O	> 501	> 501	–
COc1nc(OC)c2c(=O)oc(-c3ccccc3)cc2n1	–	–	inactive
O=C1C(=O)c2ccccc2C(O)=C1Sc1ccccc1	> 200	13.5	–
CCCCCCCNC(C)(C)C(SSSC(c1ccc(Cl)cc1)C(C)(C)NCCCCCCC)c1ccc(Cl)cc1 (stereo not given)	> 100	> 100	–
O=C(NCCN1CCCCC1)c1ccc(Br)cc1	> 200	> 200	–
COc1ccc2c(c1)nc1n2C(c2c(Cl)cccc2Cl)SC1 (stereo not given)	> 200	33.1	–
COc1ccc(/C(=N\NC(=S)NN)C(c2ccc(OC)cc2)C2C(=O)Oc3ccccc32)cc1 (stereo not given)	> 75.9	> 75.9	–
COc1cc(C(C#N)NNC(=O)Cc2ccccc2)cc(OC)c1OC (stereo not given)	> 191	93.3	–
C=C1c2ccccc2CCN1CC(=O)CC1C=CCS1(=O)=O (stereo not given)	> 407	> 407	–
Cc1ccc(C)c(N2C(=O)C(=O)C(c3nc4ccccc4o3)/C(=N\NC(=O)c3ccccc3O)C2=O)c1 (stereo not given)	–	–	inactive
O=C1OC(=O)C(=C\c2ccc3c(c2)OCO3)/C1=C/c1ccc2c(c1)OCO2	–	–	inactive
CCCCCCCCCC=C(c1cc(Br)cc(C(=O)O)c1O)c1cc(Br)cc(C(=O)O)c1O	> 22.9	> 22.9	–
O=[N+]([O-])c1ccc2[nH]ncc2c1Cl	> 200	9.77	–
COP(=O)(OC)C(NC(=O)C(F)(F)F)(c1ccccc1)C(F)(F)F (stereo not given)	> 200	> 200	–
COC(=O)[C@H](Cc1ccccc1)NC(=O)NCCN(CCNC(=O)N[C@@H](Cc1ccccc1)C(=O)OC)C(=O)N[C@@H](Cc1ccccc1)C(=O)OC	> 200	33.9	–
O=C(O)CN(CC(=O)O)C1CCCCC1N1CC(=O)OC(=O)C1 (stereo not given)	> 200	18.2	–
COc1ccc(C(c2ccc3c(c2)OCO3)N2C(=O)CCC2C(=O)O)cc1 (stereo not given)	> 200	> 200	–
Cc1cc2occ(-c3ccc(Cl)cc3)c2c(=O)o1	> 20	> 20	–
NC(=S)N/N=C1\COC(C(F)(F)F)(C(F)(F)F)C1	> 200	166	–
Cc1nn(C)c2c1NC(=O)CS2	–	–	inactive

Compound	EC50 [µM]	IC50 [µM]	outcome
O=C(c1ccccc1)n1c(Cc2ccccc2)nc2cc(C34CC5CC(CC(C5)C3)C4)ccc21	> 100	16.6	–
N#Cc1cc2c(cc1C#N)SCCSCCCSCCS2	–	–	inactive
CC(=O)Nc1ccc(C2=N/C(=C\c3ccc(Cl)c(Cl)c3)C(=O)O2)cc1	> 7.24	> 7.24	–
N#CC(Nc1cccc(C(F)(F)F)c1)c1ccccc1C(F)(F)F (stereo not given)	> 39.8	> 39.8	–
O=C(O)c1cc(N=Nc2ccc(CCc3ccc(N=Nc4cc(C(=O)O)c(O)c5ccccc45)cc3S(=O)(=O)O)c(S(=O)(=O)O)c2)c2ccccc2c1O	> 12.6	> 12.6	–
O=C(CN1C(=O)c2ccccc2C1=O)OCC1CCCN2CCCCC12 (stereo not given)	> 200	> 200	–
CCc1c(C)c2cc3[nH]c(cc4nc(cc5nc(cc1[nH]2)C(C)=C5CCC(=O)OC)C(CCC(=O)OC)=C4C)c(C)c3CC	–	–	inactive
COC(=O)c1ccn2c(N(C)C)[n+]3ccc(C(=O)OC)cc3c2c1	> 100	> 100	–
C#CCN(C(=O)C(F)(F)F)C(/C=C\C(=O)OC)(C(=O)OCC)C(=O)OCC	> 200	83.2	–
O=C1c2cccc3cccc(c23)C(=O)N1O	> 100	7.41	–
Nc1nc2c(ncn2CC2COC(CO)O2)c(=O)[nH]1 (stereo not given)	> 468	> 468	–
O=C1C2=Cc3ccccc3OC2(O)Oc2cc(O)cc(O)c21 (stereo not given)	> 200	91.2	–
CC1(C)C=C(/C=N/Nc2ccccc2)C(C#N)=C(O)C1(C#N)C#N	> 200	23.4	–
COc1cc(/C=C/c2ccc(O)c(OC)c2)cc(OC)c1	> 126	2.14	–
CCCCCCCCCCCCCCCCOC(=O)c1cc(OCCOP(=O)(O)O)cc(C(=O)OCCCCCCCCCCCCCCCC)c1	–	–	inactive
CC(=O)Oc1ccc2c(-c3ccccc3)c(Oc3ccc(Cl)cc3)c(=O)oc2c1	> 200	15.8	–
O=C1N[C@@H]2CCCC[C@@H]2C12CCCCC2	–	–	inactive
CC(C)NCC(O)COC(=O)c1cccs1 (stereo not given)	–	–	inactive
CC1C(N2CCCCC2)N(C(=O)c2ccccc2)SC12c1ccccc1-c1ccccc12 (stereo not given)	> 42.7	> 42.7	–
CCN(CC)CCNc1nc2c([nH]1)c(=O)n(C)c(=O)n2C	> 759	219	–
c1ccc(N=C2SC3=NCCN3C2=Nc2ccccc2)cc1	> 200	8.32	–
CCOC(=O)CC(NCc1ccc(N=Cc2nc3ccc(C(F)(F)F)cc3nc2-c2ccccc2)cc1)C(=O)OCC (stereo not given)	> 200	162	–

Compound	EC50 [µM]	IC50 [µM]	outcome
CCCCCCCCCCCCOC(=N)N1CCOCC1	> 91.2	4.47	–
COc1ccc(N2C=Nn3c(nc4sc(C)c(C)c4c3=O)C2)cc1	–	–	inactive
O=C(Nc1nc2ncn(CCI)c2c(=O)[nH]1)c1ccccc1	> 63.1	> 63.1	–
O=C(O)c1ccc(Nc2nc3ccccc3nc2C(=O)O)cc1	> 200	> 200	–
CN(C)c1ccc(/C=c2\sc3nc4ccccc4n3c2=O)cc1	> 0.851	> 0.851	–
Nc1ncnc2c1nc(Br)n2C(C=O)OC(C=O)CO (stereo not given)	–	–	inactive
CC(C)(C)OC(=O)N1NC(c2ccccc2)CC1c1ccccc1 (stereo not given)	> 200	28.2	–
CO/N=C\c1ccc2c(c1)Sc1ccccc1O2	> 200	> 200	–
O=C(O)c1cc(/C=C/c2cc(O)ccc2O)ccc1O	> 182	15.5	–
COn1c2ccccc2c2c1cc1ccccc1[n+]2[O-]	> 67.6	31.6	–
Cc1c2c(n(CCc3ccccc3)c1C)N(C)N=C(C#N)S2(=O)=O	> 200	> 200	–
O=C1NC(=O)/C(=C\c2ccncc2)N1	> 200	> 200	–
COc1ccc(Nc2ccc([N+](=O)[O-])c3nonc23)cc1	> 77.6	> 77.6	–
CC(C)[C@@H]1CC[C@@H](C)C[C@H]1OC(=O)/C=C1\C(C(=O)O[C@@H]2C[C@H](C)CC[C@H]2C(C)C)[C@H]2C=C[C@@H]1O2 (stereo not given in full)	> 200	> 200	–
COC(=O)C1=C(C)N2CCOC2(C)C(C(=O)OC)C1c1ccc[nH]1 (stereo not given)	> 200	> 200	–
Nc1nc(N)c(NC(=O)CCCO)c(=O)[nH]1	> 200	> 200	–
Cc1cc(O)c2c(O)c3c(O)cc(=O)c(-c4c(=O)cc(O)c5c(O)c6c(O)cc(C)oc6cc45)c3cc2o1	–	–	inactive
CC(=O)NCCSSCc1ccccc1CS(=O)O	> 200	105	–
CCOC(=O)NC(C(C(=O)OCC)C(=O)OCC)(C(F)(F)F)C(F)(F)F	> 200	> 200	–
N/N=C1/CCCc2nonc21	> 200	> 200	–
CC(C)CC(NC(=O)C(Cc1cnc[nH]1)NC(=O)C(CC(N)=O)NC(=O)C(NC(=O)C(CO)NC(=O)C(Cc1ccc(O)cc1)NC(=O)C(CO)NC(=O)C(C)N)C(C)O)C(=O)O (stereo not given) (H-ASYSTNHL-OH; configuration not given here)	> 70.8	> 70.8	–
